Measurements published in ChEMBL document CHEMBL5113525, “Discovery of the Novel 1H-Pyrrolo[2,3-b]pyridine Derivative as a Potent Type II CDK8 Inhibitor against Colorectal Cancer” (J Med Chem, 2022).
Activity calls are given as the source filed them. No cut-off for these calls is given here.

Assays:
[1] = MRT in Sprague-Dawley rat at 5 mg/kg, iv measured upto 12 hrs by LC-MS/MS analysis; type: ADME, organism-based; settings: in vivo
[2] = molecular target: Fibroblast growth factor receptor 4 (Homo sapiens) (UniProt P22455); test: Inhibition of human FGFR4 at 1 uM relative to control
[3] = molecular target: Hepatocyte growth factor receptor (Homo sapiens) (UniProt P08581); test: Inhibition of human MET at 1 uM relative to control
[4] = molecular target: Tyrosine-protein kinase Lyn (Homo sapiens) (UniProt P07948); test: Inhibition of human LYN at 1 uM relative to control
[5] = molecular target: Tyrosine-protein kinase JAK3 (Homo sapiens) (UniProt P52333); test: Inhibition of human JAK3 at 1 uM relative to control
[6] = AUC(0 to infinity) in Sprague-Dawley rat at 5 mg/kg, iv measured upto 12 hrs by LC-MS/MS analysis; type: ADME, organism-based; set-up: time < 12 hrs, dose 5 mg/kg, route iv; settings: in vivo
[7] = molecular target: Fibroblast growth factor receptor 3 (Homo sapiens) (UniProt P22607); test: Inhibition of human FGFR3 at 1 uM relative to control
[8] = AUC(0 to infinity) in Sprague-Dawley rat at 10 mg/kg, po measured upto 12 hrs by LC-MS/MS analysis; type: ADME, organism-based; set-up: dose 10 mg/kg, time < 12 hrs, route po; settings: in vivo
[9] = molecular target: Tyrosine-protein kinase JAK2 (Homo sapiens) (UniProt O60674); test: Inhibition of human JAK2 at 1 uM relative to control
[10] = molecular target: Tyrosine-protein kinase JAK1 (Homo sapiens) (UniProt P23458); test: Inhibition of human JAK1 at 1 uM relative to control
[11] = Oral bioavailability in Sprague-Dawley rat at 10 mg/kg measured upto 12 hrs by LC-MS/MS analysis; type: ADME, organism-based; settings: in vivo
[12] = molecular target: Dual specificity protein kinase CLK3 (Homo sapiens) (UniProt P49761); test: Inhibition of human CLK3 at 1 uM relative to control
[13] = molecular target: Fibroblast growth factor receptor 1 (Homo sapiens) (UniProt P11362); test: Inhibition of human FGFR1 at 1 uM relative to control
[14] = Cmax in Sprague-Dawley rat at 10 mg/kg, po measured upto 12 hrs by LC-MS/MS analysis; type: ADME, organism-based; set-up: time < 12 hrs, dose 10 mg/kg, route po; settings: in vivo
[15] = molecular target: Tyrosine-protein kinase Mer (Homo sapiens) (UniProt Q12866); test: Inhibition of human MER at 1 uM relative to control
[16] = molecular target: Catenin beta-1 (Homo sapiens) (UniProt P35222); test: Inhibition of beta-catenin in human HCT-116 cells assessed as accumulation in cytoplasm incubated for 24 hrs by DAPI staining based immunofluorescence assay; type: cell-based
[17] = Half life in Sprague-Dawley rat at 5 mg/kg, iv measured upto 12 hrs by LC-MS/MS analysis; type: ADME, organism-based; settings: in vivo
[18] = MRT in Sprague-Dawley rat at 10 mg/kg, po measured upto 12 hrs by LC-MS/MS analysis; type: ADME, organism-based; settings: in vivo
[19] = molecular target: Dual specificity protein kinase CLK1 (Homo sapiens) (UniProt P49759); test: Inhibition of human CLK1 at 1 uM relative to control
[20] = molecular target: Vascular endothelial growth factor receptor 1 (Homo sapiens) (UniProt P17948); test: Inhibition of human FLT1 at 1 uM relative to control
[21] = molecular target: Serine/threonine-protein kinase pim-1 (Homo sapiens) (UniProt P11309); test: Inhibition of human PIM1 at 1 uM relative to control
[22] = Clearance in Sprague-Dawley rat at 10 mg/kg, po measured upto 12 hrs by LC-MS/MS analysis; type: ADME, organism-based; settings: in vivo
[23] = molecular target: Mitogen-activated protein kinase 10 (Homo sapiens) (UniProt P53779); test: Inhibition of human JNK3 at 1 uM relative to control
[24] = molecular target: Serine/threonine-protein kinase mTOR (Homo sapiens) (UniProt P42345); test: Inhibition of human MTOR at 1 uM relative to control
[25] = molecular target: MAP kinase-interacting serine/threonine-protein kinase 2 (Homo sapiens) (UniProt Q9HBH9); test: Inhibition of human MNK2 at 1 uM relative to control
[26] = molecular target: LIM domain kinase 1 (Homo sapiens) (UniProt P53667); test: Inhibition of human LIMK1 at 1 uM relative to control
[27] = Half life in Sprague-Dawley rat at 10 mg/kg, po measured upto 12 hrs by LC-MS/MS analysis; type: ADME, organism-based; settings: in vivo
[28] = molecular target: Serine/threonine-protein kinase pim-3 (Homo sapiens) (UniProt Q86V86); test: Inhibition of human PIM3 at 1 uM relative to control
[29] = Cmax in Sprague-Dawley rat at 5 mg/kg, iv measured upto 12 hrs by LC-MS/MS analysis; type: ADME, organism-based; set-up: dose 5 mg/kg, time < 12 hrs, route iv; settings: in vivo
[30] = molecular target: Mitogen-activated protein kinase kinase kinase 11 (Homo sapiens) (UniProt Q16584); test: Inhibition of human MLK3 at 1 uM relative to control
[31] = molecular target: Serine/threonine-protein kinase B-raf (Homo sapiens) (UniProt P15056); test: Inhibition of human BRAF at 1 uM relative to control
[32] = molecular target: Mitogen-activated protein kinase kinase kinase 10 (Homo sapiens) (UniProt Q02779); test: Inhibition of human MLK2 at 1 uM relative to control
[33] = molecular target: Mitogen-activated protein kinase kinase kinase 21 (Homo sapiens) (UniProt Q5TCX8); test: Inhibition of human MLK4 at 1 uM relative to control
[34] = molecular target: Dual specificity protein kinase CLK2 (Homo sapiens) (UniProt P49760); test: Inhibition of human CLK2 at 1 uM relative to control
[35] = molecular target: Mitogen-activated protein kinase 8 (Homo sapiens) (UniProt P45983); test: Inhibition of human JNK1-alpha-2 at 1 uM relative to control
[36] = molecular target: BDNF/NT-3 growth factors receptor (Homo sapiens) (UniProt Q16620); test: Inhibition of human TRKB at 1 uM relative to control
[37] = molecular target: Mitogen-activated protein kinase kinase kinase 9 (Homo sapiens) (UniProt P80192); test: Inhibition of human MLK1 at 1 uM relative to control
[38] = molecular target: Glycogen synthase kinase-3 alpha (Homo sapiens) (UniProt P49840); test: Inhibition of human GSK3A at 1 uM relative to control
[39] = molecular target: Mitogen-activated protein kinase 8 (Homo sapiens) (UniProt P45983); test: Inhibition of human JNK1-alpha-1 at 1 uM relative to control
[40] = molecular target: Dual specificity protein kinase CLK4 (Homo sapiens) (UniProt Q9HAZ1); test: Inhibition of human CLK4 at 1 uM relative to control
[41] = molecular target: Tyrosine-protein kinase receptor UFO (Homo sapiens) (UniProt P30530); test: Inhibition of human AXL at 1 uM relative to control
[42] = molecular target: Cyclin-dependent kinase 5/CDK5 activator 1 (Homo sapiens) (UniProt Q00535+Q15078); test: Inhibition of human CDK5/p35 at 1 uM relative to control; type: protein-complex assay
[43] = Tmax in Sprague-Dawley rat at 10 mg/kg, po measured upto 12 hrs by LC-MS/MS analysis; type: ADME, organism-based; settings: in vivo
[44] = molecular target: Aurora kinase B (Homo sapiens) (UniProt Q96GD4); test: Inhibition of human Aurora B at 1 uM relative to control
Aurora kinase B (Homo sapiens), sequence (Q96GD4 whole entry): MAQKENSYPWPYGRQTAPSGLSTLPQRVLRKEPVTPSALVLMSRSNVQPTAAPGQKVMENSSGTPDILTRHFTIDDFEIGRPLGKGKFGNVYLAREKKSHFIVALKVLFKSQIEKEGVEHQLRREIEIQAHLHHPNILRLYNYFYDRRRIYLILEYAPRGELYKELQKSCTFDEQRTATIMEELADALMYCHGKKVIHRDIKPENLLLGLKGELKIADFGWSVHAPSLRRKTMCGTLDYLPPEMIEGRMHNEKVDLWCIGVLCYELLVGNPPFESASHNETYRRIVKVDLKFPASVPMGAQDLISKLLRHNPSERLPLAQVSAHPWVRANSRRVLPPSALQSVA

Mitogen-activated protein kinase 8 (Homo sapiens), sequence (P45983 whole entry): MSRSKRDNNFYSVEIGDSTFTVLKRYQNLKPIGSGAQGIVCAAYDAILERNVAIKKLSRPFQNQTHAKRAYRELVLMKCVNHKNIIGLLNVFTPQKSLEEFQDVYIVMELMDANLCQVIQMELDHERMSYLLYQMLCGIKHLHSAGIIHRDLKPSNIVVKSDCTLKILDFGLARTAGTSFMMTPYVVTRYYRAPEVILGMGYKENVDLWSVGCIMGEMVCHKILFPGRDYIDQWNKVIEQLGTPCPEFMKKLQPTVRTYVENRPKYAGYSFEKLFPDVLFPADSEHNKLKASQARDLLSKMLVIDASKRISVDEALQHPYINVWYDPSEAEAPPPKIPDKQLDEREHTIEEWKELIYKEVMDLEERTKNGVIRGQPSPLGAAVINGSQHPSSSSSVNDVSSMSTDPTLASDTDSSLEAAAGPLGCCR
Fibroblast growth factor receptor 4 (Homo sapiens), sequence (P22455 22-802 limits assumed): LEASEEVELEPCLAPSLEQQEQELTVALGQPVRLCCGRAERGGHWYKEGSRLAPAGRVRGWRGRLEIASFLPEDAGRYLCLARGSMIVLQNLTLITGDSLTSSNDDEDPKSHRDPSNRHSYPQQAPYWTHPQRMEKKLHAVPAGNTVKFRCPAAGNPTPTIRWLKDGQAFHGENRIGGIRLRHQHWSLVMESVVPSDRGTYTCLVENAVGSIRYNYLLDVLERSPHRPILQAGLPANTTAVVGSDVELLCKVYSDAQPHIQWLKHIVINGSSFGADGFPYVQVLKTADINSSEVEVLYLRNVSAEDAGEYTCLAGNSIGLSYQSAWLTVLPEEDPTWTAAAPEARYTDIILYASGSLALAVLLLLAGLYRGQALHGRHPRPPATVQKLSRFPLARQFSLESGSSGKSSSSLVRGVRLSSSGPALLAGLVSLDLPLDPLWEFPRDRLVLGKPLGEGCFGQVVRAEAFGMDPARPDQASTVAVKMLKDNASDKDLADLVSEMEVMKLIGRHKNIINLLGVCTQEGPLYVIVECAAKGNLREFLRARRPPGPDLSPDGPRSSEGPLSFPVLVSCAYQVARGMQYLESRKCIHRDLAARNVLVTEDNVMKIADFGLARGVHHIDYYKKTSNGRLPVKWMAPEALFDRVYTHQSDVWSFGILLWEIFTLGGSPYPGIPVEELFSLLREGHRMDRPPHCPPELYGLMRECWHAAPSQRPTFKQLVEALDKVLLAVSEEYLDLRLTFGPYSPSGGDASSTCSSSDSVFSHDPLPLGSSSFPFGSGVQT
Fibroblast growth factor receptor 3 (Homo sapiens), sequence (P22607 23-806 limits assumed): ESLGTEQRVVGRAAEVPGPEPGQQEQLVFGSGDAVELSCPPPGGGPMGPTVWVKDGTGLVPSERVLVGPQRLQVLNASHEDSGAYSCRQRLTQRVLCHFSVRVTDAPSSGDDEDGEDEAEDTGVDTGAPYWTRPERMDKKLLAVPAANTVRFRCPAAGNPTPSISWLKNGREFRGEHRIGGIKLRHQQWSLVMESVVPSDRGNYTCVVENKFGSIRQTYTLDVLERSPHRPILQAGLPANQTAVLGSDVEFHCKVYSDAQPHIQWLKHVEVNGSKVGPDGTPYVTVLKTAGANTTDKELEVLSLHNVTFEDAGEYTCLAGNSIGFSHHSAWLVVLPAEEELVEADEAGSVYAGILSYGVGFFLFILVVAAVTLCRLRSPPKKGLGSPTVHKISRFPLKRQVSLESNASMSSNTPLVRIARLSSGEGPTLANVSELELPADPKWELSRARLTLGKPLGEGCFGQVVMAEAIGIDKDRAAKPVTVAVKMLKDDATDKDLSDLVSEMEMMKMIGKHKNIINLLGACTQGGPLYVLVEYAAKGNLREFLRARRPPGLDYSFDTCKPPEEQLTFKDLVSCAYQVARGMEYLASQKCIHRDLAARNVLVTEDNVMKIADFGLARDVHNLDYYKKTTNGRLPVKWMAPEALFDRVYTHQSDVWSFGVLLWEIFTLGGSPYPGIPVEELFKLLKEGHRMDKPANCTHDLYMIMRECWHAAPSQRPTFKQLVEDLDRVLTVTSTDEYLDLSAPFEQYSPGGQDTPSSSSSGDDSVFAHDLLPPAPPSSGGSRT
Dual specificity protein kinase CLK1 (Homo sapiens), sequence (P49759 whole entry, looked up): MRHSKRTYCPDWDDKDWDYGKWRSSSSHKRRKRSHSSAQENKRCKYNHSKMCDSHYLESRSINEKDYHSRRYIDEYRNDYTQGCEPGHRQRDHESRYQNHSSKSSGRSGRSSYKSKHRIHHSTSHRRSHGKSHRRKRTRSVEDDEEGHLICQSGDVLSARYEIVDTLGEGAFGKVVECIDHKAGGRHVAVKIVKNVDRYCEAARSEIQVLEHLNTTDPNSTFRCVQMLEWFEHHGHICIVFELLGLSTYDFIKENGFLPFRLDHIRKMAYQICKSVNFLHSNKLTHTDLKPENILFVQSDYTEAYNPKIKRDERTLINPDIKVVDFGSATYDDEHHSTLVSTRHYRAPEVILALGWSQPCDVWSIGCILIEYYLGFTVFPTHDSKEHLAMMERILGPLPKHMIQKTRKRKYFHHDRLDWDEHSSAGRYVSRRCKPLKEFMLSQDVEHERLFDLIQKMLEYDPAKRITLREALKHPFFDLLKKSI
Mitogen-activated protein kinase 10 (Homo sapiens), sequence (P53779 whole entry): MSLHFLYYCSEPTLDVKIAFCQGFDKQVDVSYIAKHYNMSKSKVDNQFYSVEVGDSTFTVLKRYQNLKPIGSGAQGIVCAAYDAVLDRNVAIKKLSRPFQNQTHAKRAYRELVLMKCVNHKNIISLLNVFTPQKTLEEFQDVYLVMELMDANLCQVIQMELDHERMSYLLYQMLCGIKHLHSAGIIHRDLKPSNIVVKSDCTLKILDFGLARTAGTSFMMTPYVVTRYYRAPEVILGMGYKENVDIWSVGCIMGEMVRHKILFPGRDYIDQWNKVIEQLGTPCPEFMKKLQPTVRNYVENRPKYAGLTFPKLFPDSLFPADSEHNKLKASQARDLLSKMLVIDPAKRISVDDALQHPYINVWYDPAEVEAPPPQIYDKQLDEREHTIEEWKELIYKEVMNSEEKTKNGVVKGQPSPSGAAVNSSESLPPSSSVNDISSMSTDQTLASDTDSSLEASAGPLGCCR
Serine/threonine-protein kinase pim-1 (Homo sapiens), sequence (P11309 whole entry, looked up): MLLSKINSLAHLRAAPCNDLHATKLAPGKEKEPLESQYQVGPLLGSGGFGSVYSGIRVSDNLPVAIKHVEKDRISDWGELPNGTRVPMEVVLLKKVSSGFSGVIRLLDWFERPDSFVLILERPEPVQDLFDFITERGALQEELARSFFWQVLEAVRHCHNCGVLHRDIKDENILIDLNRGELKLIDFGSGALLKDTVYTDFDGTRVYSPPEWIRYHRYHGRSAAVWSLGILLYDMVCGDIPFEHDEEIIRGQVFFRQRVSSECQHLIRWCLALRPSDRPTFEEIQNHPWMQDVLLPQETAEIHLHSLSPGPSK
Dual specificity protein kinase CLK4 (Homo sapiens), sequence (Q9HAZ1 whole entry, looked up): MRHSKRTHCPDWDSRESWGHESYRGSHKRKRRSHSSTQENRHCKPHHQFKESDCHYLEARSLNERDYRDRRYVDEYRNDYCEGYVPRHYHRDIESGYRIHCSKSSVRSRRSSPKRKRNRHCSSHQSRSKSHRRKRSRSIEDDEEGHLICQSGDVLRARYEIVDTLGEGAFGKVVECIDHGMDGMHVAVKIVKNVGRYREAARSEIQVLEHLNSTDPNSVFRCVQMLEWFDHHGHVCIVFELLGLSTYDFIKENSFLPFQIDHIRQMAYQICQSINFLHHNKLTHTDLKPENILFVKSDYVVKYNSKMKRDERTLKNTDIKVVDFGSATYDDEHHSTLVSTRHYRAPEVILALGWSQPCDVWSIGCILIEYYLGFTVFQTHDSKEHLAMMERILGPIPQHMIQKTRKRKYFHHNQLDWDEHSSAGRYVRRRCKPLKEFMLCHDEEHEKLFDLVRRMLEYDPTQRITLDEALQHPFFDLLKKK
Catenin beta-1 (Homo sapiens), sequence (P35222 whole entry): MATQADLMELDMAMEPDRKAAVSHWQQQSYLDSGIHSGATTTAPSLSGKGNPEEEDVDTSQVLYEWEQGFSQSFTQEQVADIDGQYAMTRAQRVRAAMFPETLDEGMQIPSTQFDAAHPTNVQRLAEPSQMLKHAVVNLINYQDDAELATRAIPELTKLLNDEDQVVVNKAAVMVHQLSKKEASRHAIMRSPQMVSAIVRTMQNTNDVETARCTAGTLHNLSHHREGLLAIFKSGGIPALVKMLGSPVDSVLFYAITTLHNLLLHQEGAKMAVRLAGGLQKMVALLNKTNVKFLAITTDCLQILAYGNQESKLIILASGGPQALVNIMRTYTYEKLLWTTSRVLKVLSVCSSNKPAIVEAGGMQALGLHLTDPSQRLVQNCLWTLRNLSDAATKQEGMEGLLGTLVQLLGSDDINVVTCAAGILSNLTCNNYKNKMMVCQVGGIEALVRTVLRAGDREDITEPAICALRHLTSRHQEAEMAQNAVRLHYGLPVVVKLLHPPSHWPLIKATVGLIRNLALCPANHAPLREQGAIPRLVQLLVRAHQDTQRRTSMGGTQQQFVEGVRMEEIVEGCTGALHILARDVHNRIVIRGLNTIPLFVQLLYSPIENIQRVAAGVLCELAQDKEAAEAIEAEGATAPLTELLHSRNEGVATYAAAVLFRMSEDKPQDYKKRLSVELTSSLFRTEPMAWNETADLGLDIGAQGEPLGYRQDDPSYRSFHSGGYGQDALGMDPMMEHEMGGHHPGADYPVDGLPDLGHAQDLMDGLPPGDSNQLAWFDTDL

- MRT [1]: 1.76 h
- inhibition [2]: 0%
- inhibition [3]: 0%
- inhibition [4]: 0%
- inhibition [5]: 10%
- AUC [6]: 983.09 ng·h/mL
- inhibition [7]: 0%
- AUC(0-inf) [8]: 784 ng·h/mL
- inhibition [9]: 10%
- inhibition [10]: 9%
- bioavailability [11]: 39.8%
- inhibition [12]: 2%
- inhibition [13]: 0%
- Cmax [14]: 498 ng/mL
- inhibition [15]: 30%
- inhibition [16]: Active
- half-life [17]: 1.63 h
- MRT [18]: 2.02 h
- inhibition [19]: 10%
- inhibition [20]: 1%
- inhibition [21]: 0%
- CL/F [22]: 154 mL/min/kg
- inhibition [23]: 8%
- inhibition [24]: 5%
- inhibition [25]: 10%
- inhibition [26]: 6%
- half-life [27]: 1.21 h
- inhibition [28]: 4%
- Cmax [29]: 706 ng/mL
- inhibition [30]: 0%
- inhibition [31]: 15%
- inhibition [32]: 5%
- inhibition [33]: 0%
- inhibition [34]: 9%
- inhibition [35]: 0%
- inhibition [36]: 24%
- inhibition [37]: 7%
- inhibition [38]: 6%
- inhibition [39]: 2%
- inhibition [40]: 6%
- inhibition [41]: 38%
- inhibition [42]: 0%
- Tmax [43]: 0.75 h
- inhibition [44]: 43%
SMILES: Cc1ccc(NC(=O)CCc2cccc(-c3cnc4[nH]ccc4c3)c2)cc1C(F)(F)F
